ChEMBL document CHEMBL3507680, “University of Dundee, Gates Library screen for HepG2 cell viability”

Assay: Human HepG2 cell viability assay in 384 well format
Assay type: toxicity, cell-based
Set-up: dose 125 nL, time 70.5 hour; concentration not given beside the values
Settings: HepG2 cells, read-out: Inhibition

SMILES	cytotoxicity at 70.5 h
Cc1ccc2c(c1)C(=O)NCC1(CCN(C(=O)c3sccc3C)CC1)O2	-5.39%
Cn1cc(-c2nc(C3CCN(CC4CC4)CC3)cc3c2ncn3C)cn1	-1.1%
Cc1cc(CNC(=O)c2cnoc2C)c(C)o1	-12%
O=C(CCc1nc(Cl)n[nH]1)N1C[C@@H](CN2CCCCC2)[C@@H](CO)C1	-6.93%
CCCn1nnnc1CSc1nccn1C	-7.23%
COc1ccc2c(c1)CC(C(=O)N(C)CCCc1cnn(C)c1)CO2 (stereo not drawn)	-8.48%
CCc1ccc(CN(C/C=C/c2ccccc2)CCOC)nc1	-2.77%
CC(C)=CCN1CCN(CCCc2ccccc2)[C@H]2CS(=O)(=O)C[C@H]21	-6.15%
CN(CCn1cccn1)c1cc(C(F)(F)F)nc(-c2cccnc2)n1	-4.93%
Cc1ccc(N2CCCC3(COCCN(c4cnccn4)C3)C2)nn1 (stereo not drawn)	-0.306%
Cc1cnn(CC2CN(CCN3CCCC3=O)CCO2)c1 (stereo not drawn)	-11.5%
CN(Cc1cc(-c2cccnc2)no1)C(=O)C1CCCN1S(C)(=O)=O (stereo not drawn)	-8.25%
O=C(NC[C@H]1OC[C@@H]2CCN(c3ncccn3)C[C@@H]21)c1ccnnc1	1.23%
Cc1nn(C)c(Cl)c1CNCc1cccnc1N1CCN(C)CC1	2.87%
CN(C)Cc1csc(-c2nccn2Cc2ccsc2)c1	3.09%
O=C(CSc1ccc(F)cc1F)NS(=O)(=O)c1ccc2c(c1)OCCO2	-3.46%
CC(C)CN1CC[C@@H]2[C@H](CC1)N(S(C)(=O)=O)CCS2(=O)=O	-11.1%
COc1cccc(-c2cc(-c3nc(CN4CCN(C)CC4)no3)[nH]n2)c1	6.39%
CS(=O)(=O)N1CCN(C(=O)c2cncs2)CC(C(N)=O)C1 (stereo not drawn)	-5.12%
Cc1ccc(F)c(NC(=O)NCCCn2nc3ccccn3c2=O)c1	-3.3%
Cc1ncc2c(c1CNC(=O)C1(C)CC1)CCNC2	-7.68%
NC(=O)CN1CCN(C(=O)c2cc(Cl)cc3cccnc23)CC1	19.4%
CC(C)n1ncc2c1NC(=O)C(C#N)C21CCCCC1 (stereo not drawn)	-9.51%

SMILES	cytotoxicity at 70.5 h
CCc1ccc(O)c(C(=O)NC2CCN(S(=O)(=O)CC)CC2)c1	8.84%
O=C(NCC1CCCCO1)c1ccc(-c2ccco2)[nH]c1=O (stereo not drawn)	-8.49%
CC(=O)NCC(=O)N1C[C@@H]2CC[C@H](Oc3ccccc3Cl)[C@@H]2C1	12.5%
CC(C)c1cc(N2CCC3(CCN(C)C3)C2)ncn1 (stereo not drawn)	3.25%
CC(C)CSCCCNC(=O)C1CCOC1 (stereo not drawn)	-5.76%
Cc1ccc(OCCC(=O)N(C)CCC#N)cc1C	-7.6%
Cc1cccn2c(CNC(C)CCc3ccc(O)cc3)cnc12 (stereo not drawn)	-7.78%
CCn1c(CC2CCN(C(=O)C3COCCO3)CC2)nn(C)c1=O (stereo not drawn)	42.7%
O=C(NCCC1=CCCCC1)c1ccc(-n2cccc2)nc1	-3.84%
Cc1nc(COC[C@@]23CCC[C@@H]2CN(Cc2nccs2)C3)cs1	-7.37%
Cc1nn(CCn2ccnc2-c2cc3n(n2)CCCNC3)c(C)c1Cl	13.8%
CCC(NC(=O)C1CCN(S(C)(=O)=O)CC1)c1ccc(C)cc1C (stereo not drawn)	-4.73%
CC(C)NC(=O)c1ccc2c(c1)nc1n2CCN(Cc2ccccc2)C1	-12.9%
CCN1CC2(CCN(C(=O)N(C)C)CC2)COc2ccccc2S1(=O)=O	4.83%
C1CC(NCC2CC2)CN(Cc2noc(C3CC3)n2)C1 (stereo not drawn)	-15.4%
CCc1nc(NC2CCCN(C(=O)C3CC3)C2)c2cnn(C)c2n1 (stereo not drawn)	-15.4%
COc1ccc2[nH]c3c(c2c1)CN(c1cc(NCCO)nc(N)n1)CC3	-3.57%
CCN1CC2(CC1=O)CN(C(C)=O)CCN(S(C)(=O)=O)C2 (stereo not drawn)	-13.4%
O=C(c1cccc2ncccc12)N1CCC(Nc2cccnn2)CC1	-3.36%
CC(CNC(=O)c1c[nH]nn1)Oc1ccccc1Br (stereo not drawn)	-10.7%
CN1CCN(C(=O)CCn2nnc3ccccc32)CC(C(N)=O)C1 (stereo not drawn)	-1.08%
CCCc1nc(N2CCC(CCO)CC2)c2cnn(C)c2n1	-2.39%
CN(C)C(=O)COc1ccccc1CN1CCOC2(CCCC2)C1	0.31%

SMILES	cytotoxicity at 70.5 h
O=C(NC1CC1)[C@@H]1CCO[C@@H]2CCN(Cc3ccco3)C[C@H]21	-13.9%
CC(NCc1ccccn1)c1cc2c(cc1Br)OCCO2 (stereo not drawn)	-4.31%
CN(CCc1ccncc1)CC1CCCN1c1cccnn1 (stereo not drawn)	25.1%
CCc1noc(CN2CCN(C(=O)N(C)C)CC2)n1	20.5%
Cc1cc(C)n(CC2CCCN2C(=O)c2ccnc(N(C)C)c2)n1 (stereo not drawn)	10.6%
CC(=O)N1CCN([C@@H]2CC[C@@H](N(C)C(=O)C3CCCCC3)[C@H]2O)CC1	-5.4%
COc1c(CNCc2ccc3c(c2)OCCO3)c(C(C)C)nn1C	-6.06%
CC(NCc1cc(F)ccc1F)c1ccc(OCC(=O)NC2CC2)cc1 (stereo not drawn)	-1.77%
Cc1cn2c(n1)CCC(NC(=O)c1cc[nH]n1)C2 (stereo not drawn)	-4.85%
Cc1nnc(N2CCC(CCN(C)C)CC2)c(C#N)c1C	-11.2%
CCN(CC)C(=O)[C@@H]1C[C@H](N)CN1c1noc(-c2ccccc2)n1	-3.04%
COCCOc1ccccc1C(=O)Nc1c(C)cnn1CC1CC1	-6.01%
OCCN1CCCC(c2nccnc2Oc2ccccc2)C1 (stereo not drawn)	-6.87%
COc1ccccc1OCC(=O)NCC(O)(c1cccs1)C1CC1 (stereo not drawn)	-5.23%
Cc1ccc(NC(=O)[C@@H]2C[C@H](C(=O)O)CN(Cc3sccc3C)C2)cn1	18.3%
CC(C)S(=O)(=O)N1CCN(C(=O)c2cnn(C)c2Cl)CC1	-12.2%
COc1cccc(CN2CCCC2c2cncc(Nc3nncs3)n2)c1 (stereo not drawn)	12.9%
Cc1cccc(C)c1CCNC(=O)N1CCCC2(C1)OCCO2	-5.85%
CSc1cccc(NC(=O)CCC(=O)Nc2nccs2)c1	14.4%
CCN(CC)CC(=O)N1CCN(c2nc(C)cc(OC)n2)CC1	-0.607%
O=C(CSCC1CC1)N1CCC2(CCCN(C3CCOCC3)C2=O)C1 (stereo not drawn)	-6.7%
COCCCNC(=O)c1c(-n2cnnn2)sc2c1CCC2	-3.39%
O=C(NCc1cc2ccccc2s1)c1cc(CN2CCCC(O)C2)on1 (stereo not drawn)	-3.19%

SMILES	cytotoxicity at 70.5 h
Cn1cccc1C(O)CNC(=O)COc1ccc(Cl)cc1Cl (stereo not drawn)	-12%
Cc1cc(CN2C[C@H]3CC[C@@H]2CN(C2Cc4ccccc4C2)C3)on1	3.93%
CCC(C)C(=O)N(C)Cc1cc(F)ccc1N1CCC(OC)CC1 (stereo not drawn)	-10.5%
CCCNS(=O)(=O)c1cnccc1N1CCN(C(C)C)CC1	7.02%
CN(c1ncc(S(N)(=O)=O)s1)C1CCc2ccccc2C1 (stereo not drawn)	-10%
CC(C)=CCC1(CO)CCCN(Cc2nccs2)C1 (stereo not drawn)	-9.67%
Cc1cc(CNc2cc(-c3ccoc3C)nn2CCO)c(C)o1	-12.2%
CSc1ccc(CN(C)C(=O)c2cc3c([nH]c2=O)CCCC3=O)cc1	-2.82%
CO[C@H]1CN(S(=O)(=O)c2ccccc2F)C[C@@]12CCCO2	-7.14%
Cc1ncccc1NC(=O)[C@@H]1CC[C@@H]2[C@@H](CCN2Cc2cnn(C)c2)O1	13.5%
CC(C)N(C(=O)Cn1nnnc1CCc1ccccc1)C(C)C	10.7%
O=C(NCc1ccnc(OCC2CC2)c1)C1Cc2ccccc2O1 (stereo not drawn)	-4.48%
CCCc1cc(=O)[nH]c(-c2cccc(CN3CCCCCC3)c2)n1	25.8%
CC(C)N(C)Cc1cncc2c1CCN(Cc1cccs1)C2	-3.46%
CO[C@H]1CCN(C(=O)c2ccc3oc(C)cc3c2)C[C@@]12CCCO2	-5.42%
COc1cccc(N2CCN(CC(O)c3cc(C)ccc3C)CC2)c1 (stereo not drawn)	30.4%
COC(=O)CNc1cc(C(=O)NCC(F)(F)F)cc(F)c1C	-2.26%
CCC[C@H]1CN(C2CCOCC2)C[C@@H]1NC(=O)CCCn1ccnc1	-2.79%
O=C(NCc1nnc2ccccn12)N1CCc2sccc2C1	-21.7%
Cc1ccc2c(c1)C1(CC2)CCN(c2nncs2)CC1	-4.57%
Cc1ccc(-c2nnc(CN3CCN(c4ccccn4)CC3)o2)cc1	3.67%
Cc1c(CNCC(C)Oc2cccnc2)c2ccccc2n1CC(N)=O (stereo not drawn)	2.14%
Cn1nccc1C(=O)N1CCOC(Cc2cccnc2)C1 (stereo not drawn)	16%

SMILES	cytotoxicity at 70.5 h
COCCn1ccnc1C1CCCN(C(=O)c2ccccc2C#N)C1 (stereo not drawn)	0.955%
CCN(CC1CCCO1)C(=O)Nc1cccc(N2CCOCC2)c1 (stereo not drawn)	0.519%
O=C1[C@H]2CN(Cc3ccncc3)C[C@H]2CN1c1ccsc1	-10.1%
CC(C)(C)n1cc(C2=CCN(CCN3CCCCCC3)CC2)cn1	-4.69%
CN(C)c1cc(CNC(=O)Nc2nccs2)ccn1	-1.57%
Cc1ccc(F)c2c1N(C(=O)c1ccc(S(C)(=O)=O)cc1)CCC2	-10.6%
O=S(=O)(c1ccccc1)N1CCOC(Cn2ccnc2)C1 (stereo not drawn)	-6.05%
CCCNS(=O)(=O)c1ccc(C(=O)NC(CC)c2cnn(C)c2)cc1 (stereo not drawn)	-4.79%
CN1CC2(CCCN(Cc3ccccc3OCC(=O)O)C2)OC1=O (stereo not drawn)	-2.41%
O=C(CSC1=NS(=O)(=O)c2cc(F)ccc2N1)Nc1ccc(Cl)c(Cl)c1	19.7%
CN1CCc2c(C#N)c(NCCCN3CCOCC3)n3cnnc3c2C1	-14.3%
Cc1nc(-c2ccncc2)ncc1C(C)NC(=O)Cn1ccccc1=O (stereo not drawn)	9.51%
Cc1noc(C(C)C)c1C(=O)NCc1ccc(N(C)C)c(F)c1	-9.82%
O=C1CCN(C(=O)C2(c3ccc(Br)cc3)CC2)CCN1	1.42%
CC(=O)N(Cc1ncc(C)o1)C1CCN(Cc2nccn2C)C1 (stereo not drawn)	2.28%
O=C(c1cccc(NCCO)c1)N1CCOCC1	6.48%
CCC(C)N(Cc1ccsc1)C(=O)c1ccc2[nH]nnc2c1 (stereo not drawn)	24.9%
COc1ccc(CNCC2CC2)cc1F	-7.42%
CC(C)[C@H](NC(=O)NC1CCS(=O)(=O)C1)C(=O)NCc1ccccc1 (stereo partly drawn)	-19%
N#Cc1ccsc1N1CCC(Sc2ncc[nH]2)C1=O (stereo not drawn)	-7.58%
O[C@H]1CN(Cc2ccc3c(c2)OCCO3)CC[C@@]12CCCO2	-2.15%
